{"source": "patent US20230414764A1", "about": "“Template Assembly by Proximity-Enhanced Reactivity via Metabolic Labeling” (The General Hospital Corporation, priority 2020, published 2023)", "molecules": {"B1": {"name": "mIFNβ: murine interferon-beta (protein, UniProt P01575 22-182, looked up)", "Interferon beta": "INYKQLQLQERTNIRKCQELLEQLNGKINLTYRADFKIPMEMTEKMQKSYTAFAIQEMLQNVFLVFRNNFSSTGWNETIVVRLLDELHQQTVFLKTVLEEKQEERLTWEMSSTALHLKSYYWRVQRYLKLMKYNSYAWMVVRAEIFRNFLIIRRLTRNFQN"}}, "key": {"[1]": {"system": "Jurkat cells (human T lymphoma)", "assay": "Metabolic labeling (AzNAM/DPEG-FAM) of Jurkat cells, flow cytometric analysis", "type": "cell-based", "description": "Surface azide groups resulting from the metabolic labeling process react with the DBCO group (dibenzocyclooctyne) of DPEG-FAM, and were monitored by flow cytometry.\n22 hr prior to harvest, cell media were supplemented with […] AzNAM or control solvent only (DMSO). After harvest and washing, cells (10^6 cells/ml) were treated with 2 mM DPEG-FAM, washed, and subjected to flow cytometric analysis. […] FIGS. 20A-20D show flow cytometric analysis of human Jurkat cells after treatment with 100 ng/ml human IFN-beta for three days, with addition of 100 μM AzNAM at 22 hr prior to harvest. Cells were treated with DPEG-FAM prior to flow analysis.\nFIGS. 21A-21D show flow cytometric analysis of human Jurkat cells after treatment with 75 ng/ml human IFN-beta for 3 days, with addition of 100 μM AzNAM at 22 hr prior to harvest. Cells were treated with DPEG-FAM prior to flow analysis.\nFIGS. 23A-23D show flow cytometric analysis of human Jurkat cells after treatment with 50 μM STING agonist 1 (STAG1) for 3 days, with addition of 100 μM AzNAM at 22 hr prior to harvest. Cells were treated with DPEG-FAM prior to flow analysis."}, "HeLa cells [2]": {"system": "HeLa cells", "assay": "Azide metabolic labeling of HeLa cells with AzNAM, reaction with DBCO-FAM, fluorescent plate reader", "type": "cell-based, human", "conditions": "AzNAM 10-125 μM, 20 hours, DBCO-FAM 10 μM, 96-well plate reader", "description": "Initially, cells were cultured in a suitable culture vessel such that their level of confluency at the time of addition of the azide-modified sugar, AzNAM, was not more than 80%.\nIn particular, HeLa cells were plated in 6-well plates (2.5×10^4 cells/well) and incubated for 48 hours in DMEM-10% FBS medium in a standard 5% CO2 atmosphere. Medium from each well was removed, and each well was washed with 2 ml of phosphate buffered saline (PBS), and fresh DMEM-FBS (1 ml) added. Subsequently, varying amounts of AzNAM (solubilized in DMSO) were added to the wells in small (10 μl) volumes to produce the desired final concentrations in the range 10-125 μM (see, FIG. 1). After an additional 20 hours incubation, the medium in each well was removed, and the wells were washed with 2 ml of PBS, followed by addition of 1 ml of PBS. Then, a fluorescent azide reactive molecule, DBCO-FAM (Broadpharm), was directly added to each well to produce a final concentration of 10 μM.\nPlates with added DBCO-FAM were protected from bright light and incubated for 1 hour at room temperature. Supernatants in each well were removed, and each well was washed twice with 2 ml of PBS. […] After pelleting and washing in PBS, cells were resuspended in 150 μl of PBS and counted. Defined numbers in 50 μl volumes in a 96-well Blackwell plate (Corning) were assayed for fluorescence in a fluorescent plate reader (Tecan)."}, "HeLa cells [3]": {"system": "HeLa cells", "assay": "Flow cytometry of AzNAM-labeled HeLa cells reacted with DBCO-FAM", "type": "cell-based, human", "conditions": "AzNAM 125 μM, 20 hours, versus cells receiving no azide-modified sugar", "description": "In separate cultures, HeLa cells were added to wells of a 12-well plate at 10,000 cells/well, and cultured for 72 hours under normal conditions. The wells were washed with 1 ml of PBS, and 0.5 ml of DMEM-10% FBS was added. AzNAM was added to a final concentration of 125 μM, with cells receiving no azide-modified sugar as controls. After 20 hours, cells were harvested with CellStripper (250 μl/well), washed with PBS, and subjected to flow analysis."}, "HeLa cells [4]": {"system": "HeLa cells", "assay": "Surface template / ligation-template (LT) qPCR assay on azide-labeled HeLa cells", "type": "cell-based, human", "conditions": "HeLa cells treated with greater than 6 μM of AzNAM", "from_the_text": "For example, a nuclease-resistant template (with a 2′-O-methyl RNA backbone) can be modified with a 5′ or 3′ DBCO group, allowing it to specifically react with azides on the surface of metabolically labeled cells. Following this, the template-bearing cells can be treated with two shorter “ligation template” (LT) oligonucleotides each complementary to contiguous regions of the template, and where one of the LT oligonucleotides bears a 5′-phosphate (LT1). After annealing, the 5′-phosphate of LT1 can be ligated with the 3′-hydroxyl on its partner LT (LT2) adjacent on the same template (see, FIG. 16). For this ligation, a ligase enzyme can be used that is compatible with modified nucleic acid backbones, such as Splint® Ligase (New England Biolabs). Since each LT oligonucleotide is also equipped with an additional priming site, the joined LT (1+2) sequence can be amplified by PCR, and can also easily be amenable to quantitation by qPCR. […]\nTo apply the surface template/LT assay to azide-labeled HeLa cells, cells were treated with several concentrations of AzNAM in 6-well plates at about 80% confluency. After 20 hours, cells were removed from the plate with CellStripper, washed with […] (SF-RPMI), and counted. […]\nLT1 and LT2 oligonucleotides complementary to the surface template were added in equimolar quantities to a final concentration of 0.2 pmol/μl. […]"}, "[5]": {"system": "murine ovarian cancer cell line ID8", "assay": "Metabolic labeling (AzNAM/DPEG-FAM) of ID8 cells, flow cytometric analysis", "type": "cell-based", "from_the_text": "For Examples 7-11, metabolic labeling was monitored by treatment of cultured cells with the sugar analog peracetylated N-azidoacetylmannosamine (AzNAM), followed after harvest with treatment with the bifunctional click/fluorescent compound DBCO-PEG3-FAM (DPEG-FAM). Surface azide groups resulting from the metabolic labeling process react with the DBCO group (dibenzocyclooctyne) of DPEG-FAM, and were monitored by flow cytometry.\nThe murine ovarian cancer cell line ID8 represent an example of a cell type giving a relatively low metabolic labeling response, as assessed by AzNAM/DPEG-FAM as usual, results shown in FIGS. 22A-22D. Subconfluent ID8 cells were treated with or without 100 ng/ml murine interferon-beta (mIFNβ), and then treated with AzNAM and DPEG-FAM in a similar manner as for the Jurkat cells of Examples 7 and 8. […] FIGS. 22A-22D show flow cytometric analysis of murine ID8 cells after treatment with 100 ng/ml murine IFN-beta for 3 days, with addition of 100 μM AzNAM at 22 hr prior to harvest. Cells were treated with DPEG-FAM prior to flow analysis.\nThe murine-specific STING agonist DMXAA (R&D Systems) was used to test ID8 cells with a similar experimental arrangement as for Example 9. […] FIGS. 24A-24D show flow cytometric analysis of murine ID8 cells after treatment with 20 μM murine STING agonist DMXAA for 3 days, with addition of 100 μM AzNAM at 22 hr prior to harvest. Cells were treated with DPEG-FAM prior to flow analysis."}, "HeLa cells [6]": {"system": "HeLa cells", "assay": "Detection of cell-surface template on AzNAM-labeled HeLa cells with bi-labeled FAM complementary probe, flow analysis", "type": "cell-based, human", "conditions": "AzNAM-treated HeLa cells with surface template; 800 pmol probe, 30 minutes", "from_the_text": "Specific cell surface template (positioned by means of click chemical reactions with metabolically derived surface AzNAM; as described in Example 3) can be detected with alternate methods. One such approach uses probe nucleic acid molecules that are complementary to the template of interest, where both 5′- and 3′-ends of such probes are both modified with a fluorescent group, such as FAM.\nFor example, HeLa cells with surface template of the same sequence as in Example 3 but with a DNA backbone were treated with a 5′/3′ bi-labeled complementary probe of sequence: […] (SEQ ID NO:72). The same cells were also treated with a control bi-labeled scrambled oligonucleotide of sequence CTT […] (SEQ ID NO:73). For treatments, 10^5 washed AzNAM-labeled HeLa cells in 100 μl of serum-free RPMI 1640 medium were incubated with 800 pmol of complementary or scrambled bi-labeled oligonucleotides for 30 minutes at room temperature. Cells were centrifuged (3 minutes at 2000 rpm) and washed once with 500 μl of serum-free RPMI 1640 medium and once with the same volume of PBS. Cells were finally resuspended in 200 μl of PBS and subjected to standard flow analysis."}}, "note": "“And” between values parts separate entries of the source, which are not always exact repeats. Equal entries are not always repeated.", "data": [{"molecule": "O=C(NCc1ccco1)c1ccc2c(c1)N(Cc1c(F)cccc1Cl)C(=O)CS2", "note": "[STAG1]", "values": [{"measurement": "impact on control DMSO-treated cells", "setting": "[1]; Jurkat, 50 μM STAG1 3 days", "value": "minimal"}, {"measurement": "metabolic labeling enhancement relative to the untreated value", "setting": "[1]; Jurkat, 50 μM STAG1 3 days", "value": 1.2, "unit": "fold"}, {"measurement": "geometric mean fluorescence (GM)", "setting": "[1]; Jurkats/AzNAM+STAG1: 50 μM STAG1 3 days, 100 μM AzNAM 22 hr prior to harvest", "value": 325.69}, {"measurement": "geometric mean fluorescence (GM)", "setting": "[1]; Jurkats/DMSO+STAG1: 50 μM STAG1 3 days, control solvent only", "value": 1.47}]}, {"molecule": "CC(=O)OC[C@H]1OC(OC(C)=O)[C@@H](NC(=O)CN=[N+]=[N-])[C@@H](OC(C)=O)[C@@H]1OC(C)=O", "note": "(some centres unmarked) [AzNAM, peracetylated N-azidoacetylmannosamine]", "values": [{"measurement": "cell-associated fluorescence", "setting": "HeLa cells [2]", "value": "increased as a function of the levels of AzNAM"}, {"measurement": "flow analysis peak shift", "setting": "HeLa cells [3]", "value": "marked and well-demarcated peak shifts"}, {"measurement": "increase over background in formation of the templated LT product", "setting": "HeLa cells [4]", "value": "over an order of magnitude"}, {"measurement": "geometric mean fluorescence (GM)", "setting": "[5]; ID8/AzNAM (Ctrl): 100 μM AzNAM at 22 hr prior to harvest, no-treatment control, DPEG-FAM", "value": "37.68 and 19.14"}]}, {"molecule": "Cc1ccc2c(=O)c3cccc(CC(=O)O)c3oc2c1C", "note": "[DMXAA]", "values": [{"measurement": "geometric mean fluorescence (GM)", "setting": "[5]; ID8/AzNAM+DMXAA: 20 μM DMXAA 3 days, 100 μM AzNAM 22 hr prior to harvest", "value": 33.73}, {"measurement": "geometric mean fluorescence (GM)", "setting": "[5]; ID8/Ctrl+DMXAA: 20 μM DMXAA 3 days, control solvent only", "value": 1.67}, {"measurement": "AzNAM/DPEG-FAM response enhancement relative to the untreated value", "setting": "[5]; ID8, 20 μM DMXAA 3 days", "value": 1.8, "unit": "fold"}, {"measurement": "effect on comparably-treated DMSO controls", "setting": "[5]; ID8, 20 μM DMXAA 3 days", "value": "no effect"}]}, {"molecule": "complementary oligonucleotide: 5′/3′ FAM bi-labeled probe complementary to surface template, SEQ ID NO:72 (DNA TCCAGATGTCTTTGCTTTTCTTCAGGACACA; 5' and 3' FAM labels, chemistry not fully specified)", "values": [{"measurement": "fluorescent peak relative to cells incubated with control scrambled oligonucleotide", "setting": "HeLa cells [6]", "value": "significantly shifted fluorescent peak"}]}, {"molecule": "B1", "values": [{"measurement": "geometric mean fluorescence (GM)", "setting": "[5]; ID8/AzNAM+mIFNβ: 100 ng/ml murine IFN-beta 3 days, 100 μM AzNAM 22 hr prior to harvest", "value": 80.58}, {"measurement": "geometric mean fluorescence (GM)", "setting": "[5]; ID8/DMSO+mIFNβ: 100 ng/ml murine IFN-beta 3 days, control solvent only", "value": 16.49}, {"measurement": "labeling change in control DMSO cells", "setting": "[5]; ID8, 100 ng/ml mIFNβ 3 days", "value": "much reduced labeling increase"}, {"measurement": "labeling enhancement of AzNAM-treated cells relative to the untreated value", "setting": "[5]; ID8, 100 ng/ml mIFNβ 3 days", "value": 2.1, "unit": "fold"}]}]}
